Experiments:
[1] = Example 4: clinical observations / toxicological responses; assay type: in vivo; conditions: 3 mg/kg once or twice daily, 7 days
Experimental: During the ten day study period, on an at least once-daily basis, each of the dogs was monitored for clinical observations, mortality, moribundity, body mass, acceptability/palatability, and food consumption. Serum samples were taken to measure capromorelin concentration, GH concentration, IGF-1 concentration, and cortisol concentration. Serum samples were taken on days 1, 2, 4, and 7 at −15 minutes (pre-dose), immediately prior to dosing (0 minutes) and 30, 45, 60, 90, 120, 240, 360, and/or 480 minutes post dosing. Additional serum samples were taken at 8 AM on Day 10 of the study to assess long-term impact of the active treatments.

[2] = Example 9: capromorelin concentration in serum; assay type: in vivo
Experimental: (§1) A four-day study was performed to further assess the pharmacokinetics of formulation 8 from Example 3 (i.e., the most “well-accepted” formulation) in cats. Moreover, the administration of formulation 8 was also analyzed to determine if administration of this formulation could induce sustained production of IGF-1 and relatively depressed, mitigated, or lower levels of cortisol. The different capromorelin-dosing regimens were also assessed for the impact on food intake and changes in body mass.
(§2) Twenty-four adult cats were divided into one of four treatment groups, with all four groups as active treatment groups. Each of the active treatment groups included 6 cats. The first group received a sterile injection of a capromorelin composition containing a 0.75 mg/kg concentration of capromorelin once per day during the four-day experiment. The second group received a once-daily sterile injection of a capromorelin composition at a concentration of 2 mg/kg. The third group received a once-daily dose of a capromorelin composition at a concentration of 2 mg/kg, via oral gavage. […]
(§3) During the seven day study period, on an at least once-daily basis, each of the cats was monitored for clinical observations, mortality, moribundity, body mass, acceptability/palatability, and food consumption. […]

IGF-1 [3] = assay: Example 9: serum IGF-1 concentration; assay type: in vivo, cats
Experimental: as §1
Twenty-four adult cats were divided into one of four treatment groups, with all four groups as active treatment groups. Each of the active treatment groups included 6 cats. The first group received a sterile injection of a capromorelin composition containing a 0.75 mg/kg concentration of capromorelin once per day during the four-day experiment. The second group received a once-daily sterile injection of a capromorelin composition at a concentration of 2 mg/kg. The third group received a once-daily dose of a capromorelin composition at a concentration of 2 mg/kg, via oral gavage. The fourth group received a once-daily dose of a capromorelin composition containing capromorelin at a concentration of 4 mg/kg, via oral gavage.
During the seven day study period, on an at least once-daily basis, each of the cats was monitored for clinical observations, mortality, moribundity, body mass, acceptability/palatability, and food consumption. Serum samples were taken to measure capromorelin concentration, IGF-1 concentration, and cortisol concentration. Serum samples were taken on days 1 and 4 immediately prior to dosing (0 minutes) and 30, 60, 90, 120, 240, 360, and/or 480 minutes post dosing. Additional serum samples were taken at 8 AM on Day 7 of the study to assess long-term impact of the active treatments.

cortisol = assay: Example 9: serum cortisol concentration; assay type: in vivo, cats; conditions: day 4
Experimental: as §1, §2, §3

IGF-1 [4] = assay: Example 12: serum IGF-1; assay type: in vivo, cats; conditions: Day 0
Experimental: Similar to some of the other pharmacokinetic analyses conducted in dogs and cats, an additional pharmacokinetic study was conducted in cats to assess capromorelin formulations that allow sufficient drug to circulate to produce appetite stimulation and to define the capromorelin pharmacokinetic profile in cats. Briefly, twelve cats were randomized into Group 1 (six cats) and Group 2 (six cats). Group 1 received an intravenous formulation that included 0.75 mg/kg of capromorelin dissolved in sterile water and Group 2 received a previously tested formulation via oral gavage. Food consumption was determined daily for all cats. Specifically, animals were offered feed at approximately 11:00 AM, with the removal of feed at approximately 3:00 PM. Upon removal of feed, the amount consumed was calculated. […] Initially, the cats were given a seven day acclimation period to adjust to the experimental conditions and feed provided. After the acclimation period, on Day 0, all animals in Group 1 received an intravenous injection of the composition containing a dose of 0.75 mg/kg of capromorelin. On Day 0, the animals in Group 2 received an oral administration of the formulation via gavage at a dose of 3 mg/kg of capromorelin. […]

[5] = Example 13: serum capromorelin and pharmacokinetics; assay type: in vivo, cats with compromised kidney function
Experimental: The following study was undertaken to assess multiple points. First, the following experiments were conducted to determine if a formulation of capromorelin, when administered either intravenously or subcutaneously, can stimulate appetite in cats with compromised kidney function. Second, the following experiments were conducted to assess the pharmacokinetic profile of capromorelin in the serum of cats with compromised kidney function. Finally, the following experiments were conducted to determine if capromorelin accumulates in the serum after 14 days of treatment that is subcutaneously administered. Sixteen cats with compromised kidney function were acclimatized for the following study. Animals assigned to Group 1 (n=6) received an intravenous administration of a capromorelin formulation (i.e., capromorelin in sterile water) at a dose of 0.75 mg/kg on Day 0 of the experiment. Animals assigned to Group 2 (n=6) received a subcutaneous administration of a capromorelin formulation (2.1% w/v capromorelin, 1% w/v benzyl alcohol, and citrate buffer) daily for 14 days at a dose of 2 mg/kg. Animals assigned to Group 3 (n=4) served as untreated controls. During the study, blood samples were taken from the Group 1 animals at time points 0 (pre-administration), 5 minutes, 10 minutes, 30 minutes, 1 h, 2 h, 4 h, 6 h, 8 h, and 12 h post administration on Day 0. Blood samples were taken from the Group 2 animals at time points 0 (pre-administration), 15 minutes, 30 minutes, 45 minutes, 1 h, 2 h, 4 h, 6 h, 8 h, and 12 h post administration on Day 0 and time points 0, 30 minutes, 1 h, 2 h, 4 h, and 8 h post administration on Day 13. In addition, body weights were collected on study days −7, −1, and 13 (for Groups 2 and 3 only). Diet consumption was also monitored on study days −7 until day 13 for the animals in Groups 2 and 3 only. Referring to FIGS. 116 and 118, the pharmacokinetics of subcutaneously administered capromorelin were also determined. […] In addition, the mean fraction of the dose absorbed was determined by dividing the mean area under the curve (AUC)/dose of the animals in Group 2, which was divided by AUC/dose of the animals in Group 1. In this case, the mean fraction of the dose (F) absorbed is 1.37.

[6] = Group 1, intravenous 0.75 mg/kg, Day 0
[7] = Group 2, subcutaneous 2 mg/kg daily, Day 13
[8] = Group 2, subcutaneous 2 mg/kg, Day 0

## CN1N=C2CCN(C(=O)[C@@H](COCc3ccccc3)NC(=O)C(C)(C)N)C[C@@]2(Cc2ccccc2)C1=O.O=C(O)C(O)C(O)C(=O)O [capromorelin]
[1]
  toxicological responses: no toxicological responses were noted
[2]; oral formulations
  levels of capromorelin in the serum: relatively low levels of capromorelin in the serum
[2]; sterile injectable formulation
  time post administration of peak capromorelin concentration in the serum: about 0.5 h
IGF-1 [3]; 0.75 mg/kg sterile injectable, day 1
  increase in serum IGF-1 concentration at eight hours post administration relative to time 0: approximately 39.8%
IGF-1 [3]; 0.75 mg/kg sterile injectable, day 4
  increase in serum IGF-1 concentration at eight hours post administration relative to time 0: approximately 12.2%
IGF-1 [3]; 2 mg/kg oral, day 1
  increase in serum IGF-1 concentration at eight hours post administration relative to time 0: approximately 26.6%
IGF-1 [3]; 2 mg/kg oral, day 4
  increase in serum IGF-1 concentration at eight hours post administration relative to time 0: approximately 7.6%
IGF-1 [3]; 2 mg/kg sterile injectable, day 1
  increase in serum IGF-1 concentration at eight hours post administration relative to time 0: ~43.1%
IGF-1 [3]; 2 mg/kg sterile injectable, day 4
  increase in serum IGF-1 concentration at eight hours post administration relative to time 0: ~10.8%
IGF-1 [3]; 4 mg/kg oral, day 1
  increase in serum IGF-1 concentration at eight hours post administration relative to time 0: ~30.8%
IGF-1 [3]; 4 mg/kg oral, day 4
  increase in serum IGF-1 concentration at eight hours post administration relative to time 0: ~0.7%
cortisol
  increases in cortisol serum levels relative to day 1: mitigated on day 4
IGF-1 [4]
  IGF-1 levels in the serum, Group 1 (IV 0.75 mg/kg) compared to Group 2 (oral 3 mg/kg): greater increased in IGF-1 levels
[5]; [6]
  serum concentration of capromorelin at the spike: about 397 ng/mL
  time post-administration of initial spike of serum capromorelin: about 5 minutes
[5]; Group 2, subcutaneous 2 mg/kg
  mean absorption time: 0.4 h
[5]; Group 2, subcutaneous 2 mg/kg daily
  accumulation in the serum after 14 days of treatment: does not accumulate
[5]; [7]
  serum concentration of capromorelin at the spike: about 950 ng/mL
  time post administration of spike in serum capromorelin: 30 min
[5]; [8]
  serum concentration of capromorelin at the spike: about 833 ng/mL
  time post-administration of initial spike of serum capromorelin: about 15 minutes
[5]; cat, serum, sc, Group 2, subcutaneous 2 mg/kg, read-out: geometric Cmax
  Cmax: 893 ng/mL
[5]; cat, serum, Group 1, intravenous 0.75 mg/kg, several of the test animals
  clearance: 20 mL/min/kg
[5]; cat, serum, Group 1, intravenous 0.75 mg/kg, read-out: terminal half-life
  half-life: 40.2 to 54 min
[5]; subcutaneous AUC/dose (Group 2) divided by intravenous AUC/dose (Group 1)
  mean fraction of the dose (F) absorbed: 1.37
